“Also recorded” adds a separate entry of the source. Where two headings read alike, the source gives them in different places.
How the values were obtained:
Walker's sarcoma = conditions: rats; cited from earlier work
[1] = in vivo; cited from earlier work
advanced ovarian cancer = conditions: cited from earlier work
rat glioma C6 cells = assay: Induction of apoptosis in rat glioma C6 cells; type: cell-based; conditions: for concentration active in inducing apoptosis: in vitro
[2] = estimated (Woolley and White, 1943); cited from earlier work
mice = conditions: cited from earlier work
[3] = cited from earlier work
[4] = room temperature; cited from earlier work
[5] = extremely high doses; cited from earlier work

## Cc1ncc(C[n+]2csc(CCO)c2C)c(=O)[nH]1 [oxythiamin]
Walker's sarcoma
  decrease in growth of Walker's sarcoma: 45%
[1]
  passage of the blood-brain barrier: do not pass

## N.N.[Cl][Pt][Cl] [cisplatin]
Advanced ovarian cancer; intraperitoneal injection
  survival: 49 months
Advanced ovarian cancer; intravenous injection
  survival: 41 months

## Cc1nc(N)cc(Cl)n1 [CMP, 4-Amino-6-chloro-2-methylpyrimidine]
Rat glioma C6 cells; CMP 2.5, 5, 10 mM, 16 h 25 °C, extract diluted to 10^−5, assay day 6 (FIG. 3)
  induction of apoptosis by Naegleria agent pretreated with CMP: prevented the induction of apoptosis; also recorded: did not induce apoptosis

## Cc1ncc(C[n+]2cccc(CCO)c2C)c(N)n1 [pyrithiamin]
[1]
  passage of the blood-brain barrier: does
Rat glioma C6 cells
  concentration active in inducing apoptosis: ≥ 10 µM
[2]
  molecules required to nullify one molecule of thiamin: about 40 molecules

## CCCc1ncc(C[n+]2ccccc2C)c(N)n1 [Amprolium]
Rat glioma C6 cells
  concentration active in inducing apoptosis: ≥ 600 µM

## Cc1ncc(C[n+]2csc(CCO)c2C)c(N)n1 [thiamin]
mice; mice that could no longer stand upright
  time to improvement after thiamin: one
mice; mouse, in vivo
  time to no discernible symptoms after thiamin: ≤ 20 h
[3]; in vivo
  half-life in the body: 220 to 432 h
[3]; oral, humans, excess excreted in urine and feces
  oral amount above which thiamin is not absorbed: 3-10 mg per dose
[4]
  pH at which the methylene bridge is easily cleaved: ≥ 9 pH
[5]
  blood level causing respiratory paralysis: ≥ 70 mg of thiamin per liter of blood
Rat glioma C6 cells; Naegleria agent at dilution 10^−5, control medium 199
  excess thiamin concentration that prevented induction of apoptosis by freshly added agent: 0.5-2 mg per liter
